Assay results published in ChEMBL document CHEMBL1151597, “THE ROLE OF ARGININE IN THE BINDING OF LTD4 ANTAGONISTS TO cysLT1 RECEPTORS OF GUINEA PIG LUNG” (Bioorg Med Chem Lett, 1997).

Target: T1, Cysteinyl leukotriene receptor 1 (Cavia porcellus, UniProt Q2NNR5)
T1 sequence (Q2NNR5 whole entry): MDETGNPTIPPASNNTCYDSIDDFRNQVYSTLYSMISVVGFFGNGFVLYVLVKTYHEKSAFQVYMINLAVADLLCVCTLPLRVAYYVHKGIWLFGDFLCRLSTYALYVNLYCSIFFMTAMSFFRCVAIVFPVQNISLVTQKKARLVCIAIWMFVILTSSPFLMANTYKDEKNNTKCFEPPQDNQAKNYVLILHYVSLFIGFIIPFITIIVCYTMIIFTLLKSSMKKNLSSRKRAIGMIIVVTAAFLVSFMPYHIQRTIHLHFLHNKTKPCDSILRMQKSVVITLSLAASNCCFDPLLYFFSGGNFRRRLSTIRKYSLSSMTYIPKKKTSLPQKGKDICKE
Test: Dissociation constant for CysLT1 receptor was determined by the displacement of [3H]LTD4 from guinea pig lung membranes
Type: tissue-based, Membrane

Kd: 0.0000301 M l-1
Structure (SMILES): COc1cc(C(=O)NS(=O)(=O)c2ccccc2)ccc1Cn1ncc2ccc(NC(=O)OC3CCCC3)cc21 [ICI-198615]
